Patent publication US20230165867A1 (CHENGDU BAIYU PHARMACEUTICAL CO., LTD., priority 2020, published 2023)
Where two headings read alike, the source gives them in different places.

Tests used:
[1] = Metabolic stability in liver microsomes; assay type: in vitro ADME, human; conditions: human, human liver microsomes; 0.5 µM test substance, 0.5 mg/mL microsomes, NADPH and UDPGA, 37° C.; read-out: T½(min), stability in human liver microsomes
Protocol: Liver microsomes (purchased from Reed Liver Disease Research (Shanghai) Co., Ltd., product: human liver microsomes (NJT)); NADPH (purchased from Roche, Lot: 40939); UDPGA; the compounds of the present invention (test substances).
• (1) A mixed working solution of testosterone (0.5 µM) and 7-hydroxycoumarin (0.5 µM) was prepared. • (2) A mixed solution of NADPH (1 mM) and UDPGA (1 mM) was prepared, and prewarmed at 37° C. in a water bath shaker before use. • (3) Liver microsomes were thawed and diluted with a buffer. • (4) A preparation of a test substance (0.5 µM) and a solution of liver microsomes (0.5 mg/mL) were added to each well of an incubation plate. • (5) Three experimental groups were set and samples were added. Test group: the test substance was incubated with liver microsomes for 0 min, 30 min, 60 min, and 120 min in the presence of the coenzyme NADPH and UDPGA; Positive control group: testosterone (0.5 µM) and 7-hydroxycoumarin (0.5 µM) were incubated with microsomes for 0 min and 120 min in the presence of the coenzyme NADPH and UDPGA; Negative control group: the test substance was incubated with microsomes for 0 and 120 min without any coenzyme. • (6) All samples were incubated at 37° C., and pre-cooled methanol was added at each termination time (0, 15, 30, 45, 60 min, 120 min) to terminate the reaction, and the time was recorded. • (7) All samples were mixed well and centrifuged at 4000 rpm for 10 min. The supernatant was taken and measured by LC-MS/MS for the amount of the test substance remaining in the samples. Data analysis was carried out as follows: T½=0.693 /k, Clint = (0.693/T½) × (1 /(microsomal protein) × Scaling Factors), Note: k is the slope of the logarithm of the remaining amounts of compound versus time.

[2] = Pharmacokinetic assay in ICR mice (i.v. and p.o.); assay type: in vivo; conditions: mouse, plasma, male ICR mice; for half-life: read-out: T½ (converted); for bioavailability: po 10 mg/kg vs iv 1 mg/kg
Method in brief: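 Fasted male ICR mice (18-22 g) dosed at 1 mg/kg i.v. or 10 mg/kg p.o. in 5% DMSO/95% 30% HP-β-CD, three mice per time point. Submandibular plasma sampled up to 24 h, assayed by LC/MS/MS.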

DNA-PK kinase = molecular target: T1, DNA-PK kinase (Homo sapiens, UniProt P78527); assay: Inhibition assay of DNA-PK kinase (Promega kit, ADP-Glo chemiluminescence); assay type: biochemical; conditions: 50 µM ATP, 37° C., 60 min; read-out: IC50 (nM), inhibitory activity on DNA-PK kinase
T1 construct: purchased Promega V4107
Method in brief: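 Compounds incubated with DNA-PK at 37° C for 60 min; reaction stopped with ADP-Glo reagent (40 min, RT), then kinase detection reagent (30 min, RT). ADP formed read by luminescence against an ADP standard curve.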

TTK kinase = molecular target: T2, TTK kinase (Homo sapiens, UniProt P33981); assay: TTK kinase activity assay (ADP-Glo); assay type: biochemical; conditions: initial concentration 1000 nM, 1:3, 10 dilutions; read-out: IC50 (nM), TTK kinase inhibiting activity
T2 construct: purchased Invitrogen PV3792
T2 sequence (P33981 1-857): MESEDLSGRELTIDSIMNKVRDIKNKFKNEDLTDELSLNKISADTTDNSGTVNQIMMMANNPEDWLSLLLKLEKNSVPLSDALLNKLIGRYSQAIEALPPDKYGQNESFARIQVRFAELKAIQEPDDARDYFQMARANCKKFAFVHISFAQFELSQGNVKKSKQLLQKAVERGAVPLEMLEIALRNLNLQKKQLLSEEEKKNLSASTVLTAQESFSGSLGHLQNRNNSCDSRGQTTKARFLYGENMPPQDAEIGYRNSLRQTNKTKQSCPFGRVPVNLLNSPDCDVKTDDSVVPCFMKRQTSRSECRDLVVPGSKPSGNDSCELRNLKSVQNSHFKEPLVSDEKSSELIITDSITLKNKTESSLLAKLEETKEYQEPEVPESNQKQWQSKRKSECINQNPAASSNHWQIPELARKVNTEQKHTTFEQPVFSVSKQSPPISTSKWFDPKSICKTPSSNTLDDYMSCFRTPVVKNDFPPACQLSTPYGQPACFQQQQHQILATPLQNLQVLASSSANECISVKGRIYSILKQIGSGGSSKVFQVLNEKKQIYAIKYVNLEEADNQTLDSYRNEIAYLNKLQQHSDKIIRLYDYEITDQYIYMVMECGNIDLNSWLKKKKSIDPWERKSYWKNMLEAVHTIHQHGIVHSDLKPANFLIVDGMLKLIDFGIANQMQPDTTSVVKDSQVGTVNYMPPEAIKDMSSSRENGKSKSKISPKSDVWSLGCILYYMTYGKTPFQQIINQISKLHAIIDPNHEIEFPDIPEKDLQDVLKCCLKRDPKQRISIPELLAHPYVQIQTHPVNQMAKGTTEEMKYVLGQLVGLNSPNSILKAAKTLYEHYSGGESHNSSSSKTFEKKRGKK
Protocol: TTK kinase was purchased from Invitrogen, Cat.#: PV3792.
• (1) 1×buffer was prepared by diluting 5×buffer into 1×buffer with ddH2O, and adding 0.05 mM DTT. • (2) The compounds of the present invention were prepared at an initial concentration of 1000 nM, and diluted by 1:3 to obtain 10 serial dilutions. • (3) The diluted compounds of the present invention were added to a 384-well plate (purchased from Greiner, product number 784075) by an Echo 550 pipetting workstation, and centrifuged at 1000 g for 1 min. • (3) A 2×TTK enzyme solution was prepared with the 1×buffer. Then, 2.5 µL of the 2× enzyme solution was added to each well, centrifuged at 1000 g for 30 s, and left at room temperature for 10 min. • (4) A 2×MBP substrate/ATP mixture was prepared with the 1×buffer.

half-life at 0.5 µM [1] [min]	AUC ([2]; iv, 1 mg/kg) [ng·h/mL]	half-life ([2]; iv, 1 mg/kg) [h]	bioavailability [2] [%]	AUC ([2]; po, 10 mg/kg) [ng·h/mL]	Cmax ([2]; po, 10 mg/kg) [ng/mL]	half-life ([2]; po, 10 mg/kg) [h]	IC50 (DNA-PK kinase) [nM]	IC50 (TTK kinase) [nM]	Structure (SMILES)
> 120	171	0.771	78.4	1360	312	3.06	2.1	387	Cc1cc(C(N)=O)ncc1Nc1ncc2c(n1)n(C1CCOCC1)c(=O)n2C [Compound 18, 4-Methyl-5-((7-methyl-8-oxo-9-(tetrahydro-2H-pyran-4-yl)-8,9-dihydro-7H-purin-2-yl)amino)picolinamide]
> 120	466	0.95	135	6280	2500	3.73	0.56	4220	Cc1cc(C(N)=O)c(F)cc1Nc1ncc2c(n1)n(C1CCOCC1)c(=O)n2C [Compound 24, 2-Fluoro-5-methyl-4-((7-methyl-8-oxo-9-(tetrahydro-2H-pyran-4-yl)-8,9-dihydro-7H-purin-2-yl)amino)benzamide]
> 120	679	1.48	213	14600	5450	2.17	4.36	428	CNC(=O)c1ccc(Nc2ncc3c(n2)n(C2CCOCC2)c(=O)n3C)c(C)c1 [Compound 27, N,3-Dimethyl-4-((7-methyl-8-oxo-9-(tetrahydro-2H-pyran-4-yl)-8,9-dihydro-7H-purin-2-yl)amino)benzamide]
